Tests used:
Assay type in all cases: cell-based
[1] = test system: J399EM (HCV genotype 2a) virus; assay: Antiviral activity assay in the cell-culture-derived infectious HCV (HCVcc) system
Method: The compound according to the above example 1 was used in this experiment. The compound was formulated into a 10 mM mother liquid with DMSO, diluted to 500 nM by DMEM complete culture medium containing 0.5% of DMSO, followed by 4-fold dilution successively, and six concentrations were obtained. The positive control was diluted to 10 μM by DMEM complete culture medium containing 0.5% of DMSO, followed by 4-fold successively, and six concentrations were obtained.
(§1) Huh 7.5.1 cells, provided by Shanghai Institute of Materia Medica, Chinese Academy of Sciences.
J399EM (HCV genotype 2a) virus, i.e. a full length HCV mutant strain transfected with EGFP (enhanced green fluorescent protein) was used, which had the same infection capacity as the wild type JFH-1. The NS5A-EGFP fusion protein fluorescence was observed directly in infected cells by inserting EGFP coding sequence in the NS5A region. J399EM was provided by Shanghai Institute of Materia Medica, Chinese Academy of Sciences.
(§2) • 1) Huh 7.5.1 cells preparation: collecting the Huh7.5.1 cells in logarithmic phase, resuspending in DMEM complete culture medium, seeding into 96-well plates (7×10^3 cells/well), and incubating in a 37° C., 5% CO2 incubator for 24 h; • 2) virus infection: resuspending J399EM viruses in DMEM complete culture medium, adding the virus supernatant (MOI≈0.1) to the above 96-well plates, and washing with PBS after 8 hours of infection; • 3) drug treatment: adding various concentrations of the compounds to the Huh7.5.1 cells infected by J399EM viruses, with each concentration in duplicate; setting the control group with zero percent effect (ZPE) and the control group with hundred percent effect (HPE); replacing the compound with the DMEM complete culture medium containing 0.5% DMSO in ZPE group, and using the cells not infected with viruses in HPE group. • 4) cells incubation: incubating the 96-well plates in a 37° C., 5% CO2 incubator for 72 hr; • 5) anti-HCV activity detection: reading the relative fluorescence units (RFU) of each well by EnVision® Multi label Plate readers after incubation, and calculating the anti-HCV activity of the compounds using the obtained data according to the following formula: Inhibition %=(RFUZPE−RFUCPD)/(RFUZPE−RFUHPE)×100 • wherein RFUZPE represents the relative fluorescence units of the control group with zero percent effect and RFUCPD represents the relative fluorescence units of the corresponding compound group, and RFUHPE represents the relative fluorescence units of the control group with hundred percent effect. • 6) Cell viability detection: adding MTT solution to each well, incubating in a 37° C., 5% CO2 incubator for 4 hr, followed by addition of MTT dissolving solution, reading optical density (OD) of each well at 570 nm by the Multi label Plate readers after 6 hr, calculating the cytotoxicity of the compounds using the obtained data according to the following formula: Viability %=ODCPD/ODZPE×100 • wherein ODZPE represents the optical density of the control group with zero percent effect, and ODCPD represents the optical density of the corresponding compound; • 7) Data processing: processing the Inhibition %, Viability % by GraphPad Prism Software respectively, and obtaining the half maximal effective concentration (EC50) values and half maximal cytotoxic concentration (CC50) values of the compounds against the HVCcc GT2a viruses.

[2] = Cell viability detection (MTT) in the HCVcc system; conditions: human, Huh 7.5.1 cells infected with J399EM virus (HCVcc); Huh 7.5.1 cells, MTT, 72 hr
Method: as §1, §2

Huh 7.5.1 cells = assay: Cell viability detection (MTT) in the HCVcc system; conditions: HCVcc system
Method: as §1, §2

CC(C)OC(=O)[C@H](C)NP(=O)(OC[C@H]1O[C@@H](n2ccc(=O)[nH]c2=O)[C@](C)(F)[C@@H]1O)Oc1ccc(-c2ccccc2)cc1 (stereo partly drawn) [Example 1, (2S)-2-((([1,1′-biphenyl]-4-yloxy)(((2R,3R,4R,5R)-5-(2,4-dioxo-3,4-dihydropyrimidin-1(2H)-yl)-4-fluoro-3-hydroxy-4-methyltetrahydrofuran-2-yl)methoxy)phosphoryl)amino)propanoic Acid Isopropyl Ester]
antiviral activity compared with the positive control ([1]; HCVcc system): excellent
EC50 ([1]; Hepatitis C virus, Huh-7.5.1, 72 h): 0.039 µM
CC50 at 72 h [2]: > 10 µM
cell toxicity compared with the positive control (Huh 7.5.1 cells): less
